Results on 1 substance are retold here after US20260041780A1, “ANTIBODY-DRUG CONJUGATE AND USE THEREOF” (MINGHUI PHARMACEUTICAL (HANGZHOU) LIMITED, priority 2022, published 2026).

Experiment in all cases: Inhibition of in vitro proliferation of tumor cells (CellTiter Glo)
What all share (format): cell-based, human

Assay [1] relates to Calu-6. The settings on record: Calu-6, 120 h incubation. How it is done: (§1) Human-derived tumor cells in logarithmic growth phase were taken, trypsin-digested and resuspended using fresh complete culture medium, counted and adjusted to an appropriate concentration, and added into 96-well cell culture plate at 100 μL/well. The cell culture plate was placed in a 37° C., 5% CO2 incubator and incubated overnight. On the next day, different concentrations of ADC samples to be tested (with the highest final concentration of 1 μM, and 4-fold gradient dilution) or buffer control were added to the corresponding wells of the cell culture plate, and continued to be incubated in a CO2 incubator for 120 h. After equilibrated to room temperature, the test plate was analyzed by using a CellTiter Glo assay kit (Promega, G7558) and a multifunctional enzyme labeling instrument (Enspire 2300, PerkinElmer) to detect luminescence readings. The cellular inhibition rate was calculated according to the following equation: inhibition rate (%)=(1−(RLUADC−RLUblank)/(RLUbuffer−RLUblank))×100%, wherein, RLU represents Relative Luminescence Units. XLFit was utilized to plot the pharmacodynamic inhibition rate curve and to calculate the IC50 values (see Tables 4 and 5).

The subject of assay [2] is HepG2. The settings on record: HepG2, 120 h incubation. On the procedure: as §1
Assay [3] relates to NCI-H1975. The settings on record: NCI-H1975, 120 h incubation. On the procedure: as §1
The subject of assay [4] is NCI-N87. The settings on record: NCI-N87, 120 h incubation. On the procedure: as §1

For “Control ADC2: antibody Ifinatamab conjugated with linker-payload MC-GGFG-DXd”, the IC50 in assay [1] stood at 126 nM; in assay [2] it was 220 nM; in assay [3] it was 650 nM; in assay [4], 288 nM.
